Measurements reported in patent US4283420A, “Pharmaceutically active cyclohexyl compounds and their preparation” (Labaz, priority 1978, dated 1981).
Where two headings read alike, the source gives them in different places.

Experiments:
[1] = Acute toxicity, peroral; conditions: mouse, in vivo, po
Method: In order to locate the boundary separating the pharmacological effects from the toxicity of the products, a very approximate assessment of the toxicity was carried out on mice (batches of 10 animals) after peroral treatment.

[2] = tested on: male Swiss mice; experiment: Maximum electrical seizure; assay type: in vivo; conditions: for ED50: Mus musculus, po, 0.25 h, read-out: Maximum electrical seizure, ED50; for Maximum electrical seizure, % protection: peroral, 15 minutes
From the text: Maximum electrical seizure
The technique used is that recommended by GOODMAN (L. S.), SING-GREWALD (M.), BROWN (V. C.) and […] (E. A.), Am.
The animals tested are male Swiss mice grouped into batches of 10. The normal threshold of the electric shock which is capable of causing tonic extension of the front paws is first determined for each animal.

[3] = tested on: mice; experiment: Anoxia as a result of confinement; assay type: in vivo; conditions: Mus musculus, ip, read-out: Anoxia as a result of confinement, % increase in the survival time
Method: Anoxia as a result of confinement
Mice (in batches of 20) are placed in a 200 cm^3 hermetically sealed chamber (a wide-mouthed glass vessel) which is under normal pressure and has a normal content of atmospheric oxygen. All of the treatments are administered intraperitoneally immediately before introduction into the chamber. The animal is considered to be dead at the moment when breathing stops.
Since the wide-mouthed vessels chosen are very small, the motor activity of the animals is extremely low and this eliminates, in principle, the possibility of a positive result due to a sedative effect.
Therefore, the percentage increase in the survival time of the treated animals is noted, relative to the batch.

[4] = Sedative activity: Rotarod test; assay type: in vivo, mice (male); conditions: mouse, in vivo, po
Method: (§1) This test is used for the purpose of assessing the ability of the animals to coordinate their movements. It uses a wooden cylinder which has a diameter of 4.8 cm and revolves at a speed of 4 revolutions/minute. The test is carried out on male mice weighing about 22 g. The products are administered perorally (p.o.) to batches of 10 animals per dose. The animals are placed on the apparatus 15 minutes after administration of the product. The percentage of mice which lose their equilibrium reflex, that is to say which become incapable of retaining their balance on the cylinder for a period of 2 minutes, is noted.
(§2) Using the regression straight line method, a 50% neurotoxic dose (NTD 50) is calculated, which thus expresses the average level of the first neuromuscular effects under the influence of the studied product.

[5] = tested on: mice; experiment: β-Mercaptopropionic acid seizure; assay type: in vivo; conditions: for ED50: Mus musculus, po, 0.25 h, read-out: β-Mercaptopropionic acid seizure, ED50; for β-Mercaptopropionic acid seizure, % protection: at 400 mg/kg, peroral, 15 minutes
Method: β-Mercaptopropionic acid seizure
β-Mercaptopropionic acid is an inhibitor of glutamatedecarboxylase (GAD), which is an enzyme which catalyses the conversion of glutamate to γ-aminobutyric acid (GABA). Its action thus manifests itself in a lowering of the GABA level and the occurrence of general tonico-clonic seizures 3 to 4 minutes after it has been administered. β-Mercaptopropionic acid was administered to mice intraperitoneally at a dose of 40 mg/kg.

[6] = tested on: mouse; experiment: Ouabain seizure; assay type: in vivo; conditions: po, 0.25 h, read-out: Ouabain seizure, ED50
Method: Ouabain was administered intra-ventricularly at a dose of 5 γ/mouse in a volume of 0.02 ml.

[7] = tested on: male OFl mice; experiment: Pentetrazole seizure (mortality after i.p. pentetrazole 125 mg/kg); assay type: in vivo; conditions: for ED50: Mus musculus, po, 0.25 h
Method: This test was carried out on batches of 10 male OFl mice which had fasted since the day before and were placed in individual cages, in accordance with the method of Cheymol (J.) Acta. Pharmacol., (1950), 2, 1-55.
The treatments were carried out perorally 15 minutes before intraperitoneal (i.p.) injection of a solution of pentetrazole (125 mg/kg).
The mortality is recorded 3 hours after this injection.
It is to be noted that the 50% effective doses (ED50), where these have been determined, were calculated by the method of MOOD (J. Am. Statist. Assoc., (1965), 60, 967-78).

[8] = tested on: male mice; experiment: Sedative activity: Rotarod test; assay type: in vivo; conditions: at 600 mg/kg, peroral, mice
Method: as §1, §2

[9] = mice, measured 15 minutes after peroral treatment
[10] = β-mercaptopropionic acid 40 mg/kg i.p., mice, 15 minutes after peroral treatment
[11] = ouabain 5 γ/mouse intra-ventricularly, measured 15 minutes after peroral treatment
[12] = Table IV, mice, measured 15 minutes after peroral treatment, read-out: Pentetrazole seizure, ED50
[13] = peroral, 15 minutes after administration, male mice, read-out: Sedative activity, Rotarod test, ED50
[14] = read-out: Pentetrazole seizure, ED50
[15] = at 50 mg/kg, intraperitoneal, mice
[16] = read-out: DE 50, Pentetrazole crisis test
[17] = Table III, mice, peroral, 15 minutes after administration, read-out: DE 50, Pentetrazole crisis test

SMILES | ED50 [2, 9] [mg/kg] | TD50 at 0.25 h [4] [mg/kg] | ED50 [5, 10] [mg/kg] | ED50 [6, 11] [mg/kg] | ED50 [7, 12] [mg/kg] | ED50 [7, 14] [mg/kg] | other results
CC(C)C1(C(N)=O)CCCCC1 [Example 29] | 70 | 35 | 12 | 31 | 15 |  | mortality ([1]; 500 mg/kg): 100%; ILS at 25 mg/kg ([3]; at 25 mg/kg, intraperitoneal, mice): 16%
COCC1(C(N)=O)CCCCC1 [Example 31] | 200 | 300 |  | 250 | 195 |  | mortality ([1]; 500 mg/kg): 0%
NC(=O)C1(CBr)CCCCC1 [Example 26] |  |  | 46 |  |  | 75 | mortality ([1]; at 500 mg/kg, peroral, mice): 0%; ILS at 50 mg/kg [3]: 6%; TD50 at 0.25 h [4, 13]: 125 mg/kg
O=C(O)C1(CC#CBr)CCCCC1 [Example 35, 1-(3-bromo-2-propynyl)-1-cyclohexyl-carboxylic acid] |  | 245 |  |  | 335 |  | mortality ([1]; at 735 mg/kg, peroral, mice): 0%; Maximum electrical seizure, % protection ([2]; at 735 mg/kg, mice): 20%; β-Mercaptopropionic acid seizure, % protection ([5]; mice): 30%
O=C(CBr)CC1(C(=O)O)CCCCC1 [Example 47, 1-bromoacetonyl-1-cyclohexyl-carboxylic acid] |  |  |  |  |  |  | mortality ([1]; at 790 mg/kg, peroral, mice): 30%; ILS at 130 mg/kg ([3]; at 130 mg/kg, intraperitoneal, mice): 24%; β-Mercaptopropionic acid seizure, % protection ([5]; mice): 30%; Pentetrazole seizure, % protection ([7]; at 395 mg/kg, peroral, 15 minutes, mice): 0%
CC1(C(N)=O)CCCCC1 [Example 28] | 311 | 425 | 100 |  | 178 |  | mortality ([1]; 752 mg/kg): 50%; ILS at 70 mg/kg ([3]; at 70 mg/kg, intraperitoneal, mice): 30%
NC(=O)C1(Cc2ccccc2)CCCCC1 [Example 32] | 115 | 125 | 200 | 200 | 32 |  | ILS at 50 mg/kg [3, 15]: 0%
COCC1(C(=O)O)CCCCC1 [Example 55] |  |  |  | 950 | 190 |  | Maximum electrical seizure, % protection ([2]; at 190 mg/kg, mice): 0%; Rotarod test, % of failures [8]: 0%
CC(C)(C)C1(C(=O)[O-])CCCCC1.[Na+] [Example 41, Sodium 1-tert-butyl-1-cyclohexyl-carboxylate] |  |  |  |  |  |  | ED50 [7, 16]: 131 mg/kg
CC(C)C1(C(=O)O)CCCCC1 [Example 16] |  |  |  |  |  |  | ED50 [7, 17]: 110 mg/kg
CC(C)(Cl)C1(C(N)=O)CCCCC1 [Example 39, 1-(1-chloro-1-methylethyl)-1-cyclohexyl-carboxamide] |  |  | 63 |  | 66 |  | 
CC1(C(=O)[O-])CCCCC1.[Na+] |  |  |  |  |  | 317 | mortality ([1]; at 1882 mg/kg, peroral, mice): 50%; ED50 [2]: 563 mg/kg; ILS at 160 mg/kg [3]: 29%; TD50 at 0.25 h [4, 13]: 1020 mg/kg; ED50 [5]: 118 mg/kg; ED50 ([6]; Mus musculus): 600 mg/kg
C=CCC1(C(N)=O)CCCCC1 [Example 27] | 55 | 75 | 38 | 66 | 20 |  | mortality ([1]; 500 mg/kg): 100%; ILS at 50 mg/kg [3, 15]: 0%
O=C([O-])C1(Cc2ccccc2)CCCCC1.[Na+] |  |  |  |  |  | 116 | mortality ([1]; 1000 mg/kg, at 1,000 mg/kg, peroral, mice): 20%; ED50 [2]: 431 mg/kg; ILS at 170 mg/kg [3]: 44%; TD50 at 0.25 h [4, 13]: 650 mg/kg; ED50 [5]: 257 mg/kg; ED50 ([6]; Mus musculus): 638 mg/kg
C#CCC1(C(N)=O)CCCCC1 [Example 30] | 91 |  |  | 170 |  | 65 | mortality ([1]; at 500 mg/kg, peroral, mice): 20%; TD50 at 0.25 h [4, 13]: 125 mg/kg
CCC1(C(=O)O)CCCCC1 [Example 15] |  |  |  |  |  |  | ED50 [7, 17]: 120 mg/kg
NC(=O)C1(CCOc2ccccc2)CCCCC1 [Example 54, 1-(2-phenoxyethyl)-1-cyclohexyl-carboxamide] |  | 160 | 86 |  | 198 |  | 
CC(=O)CC1(C(=O)[O-])CCCCC1.[Na+] [Example 46, Sodium 1-acetonyl-1-cyclohexyl-carboxylate] |  |  | 270 | > 900 |  | 300 | Rotarod test, % of failures [8]: 0%
C=C(Cl)CC1(C(N)=O)CCCCC1 [Example 24, 1-(2'-chloro-2'-propenyl)-1-cyclohexyl-carboxamide] | 101 | 125 | 64 | 96 | 57 |  | mortality ([1]; 500 mg/kg): 20%; ILS at 50 mg/kg [3, 15]: 0%
CC(C)(C)C1(C(N)=O)CCCCC1 [Example 42, 1-tert-butyl-1-cyclohexyl-carboxamide] |  |  | 95 |  | 79 |  | 
C=CC1(C(=O)[O-])CCCCC1.[Na+] [Example 37, Sodium 1-vinyl-1-cyclohexyl-carboxylate] |  |  |  |  |  | 95 | 
O=C([O-])C1(CC(Br)=CBr)CCCCC1.[Na+] |  |  |  |  |  | 240 | mortality ([1]; at 600 mg/kg, peroral, mice): 0%; Maximum electrical seizure, % protection ([2]; at 600 mg/kg, mice): 60%; ILS at 190 mg/kg [3]: 50%; TD50 at 0.25 h [4, 13]: 280 mg/kg; ED50 [5]: 340 mg/kg; ED50 ([6]; Mus musculus): > 900 mg/kg
CCCC(CCC)C(=O)[O-].[Na+] [Depakene, sodium dipropyl-acetate, reference compound] |  |  |  |  |  |  | ED50 [7, 16]: 142 mg/kg
